Measurements: EP4818187A1, “COMPOUND AND USE THEREOF” (Ganzhou Hemay Pharmaceutical, Co., Ltd, priority 2023, dated 2025)

Assays:
[1] = tested on: 22RV1 (human prostate cancer); experiment: In vitro inhibitory effect against human tumor cells (SRB); type: cell-based; conditions: 22Rv1, 72 h, 22RV1, SRB, 3 days
[2] = tested on: MDA-MB-468 (human triple-negative breast cancer); experiment: as above; type: cell-based; conditions: MDA-MB-468, 72 h, MDA-MB-468, SRB, 3 days
[3] = tested on: A375 (human malignant melanoma); experiment: as above; type: cell-based; conditions: A-375, 72 h, 3 days
[4] = tested on: HepG2 (human liver cancer cell); experiment: as above; type: cell-based; conditions: HepG2, 72 h, 3 days
[5] = tested on: SW620 (human colorectal cancer); experiment: as above; type: cell-based; conditions: SW-620, 72 h, 3 days
[6] = tested on: HCC827 (human non-small cell lung cancer); experiment: as above; type: cell-based; conditions: HCC827, 72 h, 3 days
[7] = tested on: human gastric cancer NCI-N87; experiment: Biological Example 3: in vivo xenograft model of human gastric cancer NCI-N87; set-up: species or system Balb/c-nu nude mice; conditions: nude mice
Description: First, the xenograft model of human gastric cancer NCI-N87 was established subcutaneously in nude mice by inoculation with a cell-matrigel mixture. When the xenograft tumor grew to a volume of 100-300 mm^3 and maintained stable growth, the experimental animals were randomly grouped using remainder method based on the tumor volume and administered with drugs. The tumor volume was measured 2 to 3 times every week. After the dosing period was completed, the experimental animals were killed, and the subcutaneous tumors were excised and weighed. The anti-tumor activity of the drug in this model was evaluated based on relevant data of the tumor volumes and the tumor weights. Table 8: List of experimental animal groups and dosage regimens
Calculation formula of the tumor volume: volume=0.5× long diameter × short diameter^2. Relative tumor volume(RTV): RTV = Vt/ V0 [formula]
V0 is the tumor volume measured at the time of grouping for dosing (i.e., d0), and Vt is the tumor volume measured each time. Relative tumor proliferation rate(T/C): T/C = TRTV /CRTV × 100% [formula]
T is the mean RTV of the test compound, and C is the mean RTV of the model control group. [formula] Body weight change percentage = Wn /W0 × 100% [formula]
Wn: mean body weight of each group of experimental animals on day n, and W0: mean body weight of each group of experimental animals on day 0.
The purchased experimental animals were subjected to balanced feeding for 3 days. A xenograft model was established in nude mice by inoculation with a cell-matrigel mixture: conventionally cultured NCI-N87 cells in the logarithmic growth phase were sampled, digested, collected, and adjusted with PBS to a cell density of 6×10^7 cells/mL. In an ice water bath, the cell suspension was slowly added to an equal volume of matrigel, the system was fully mixed, and then the xenograft model was established by subcutaneous inoculation in the right armpit of male nude mice, with 0.15 mL/mouse and a cell inoculum size of approximately 4.5 million cells/mouse.
The tumor growth of the model animals was regularly observed. When the mean tumor volume of the model nude mice reached about 100-300 mm^3, the experimental animals were randomly grouped using the remainder method based on the tumor volume, and administered with drugs. The day on which the animals were grouped was day 0. After grouping, drugs were administered to each group according to Table 8. The dosage or dosing period can be appropriately adjusted based on the tumor growth and the animal state. After administration, the tumor volumes of the experimental animals were measured 2-3 times every week until the experiment was completed. After the dosing period was completed, the experimental animals were killed, and the subcutaneous tumors were excised and weighed. The anti-tumor activity of each compound in this model was evaluated based on relevant data of the tumor volumes and tumor weights. Table 9: Effect on growth of xenograft model of human gastric cancer NCI-N87
The test was performed based on the dosage regimen in Table 10, following the method in Biological Example 2. Table 10: List of dosage regimens

[8] = With addition of βGU (1 µg/well)

For `CC[C@H](C)[C@@H]([C@@H](CC(=O)N1CCC[C@H]1[C@H](OC)[C@@H](C)C(=O)N[C@H](C)[C@@H](OCc1ccc(O[C@@H]2O[C@H](C(=O)[O-])[C@@H](O)[C@H](O)[C@H]2O)cc1OCc1cn(CCCCCC(=O)Nc2ccc(-c3ccc(/N=N/c4ccc5c(S(=O)(=O)[O-])cc(S(=O)(=O)[O-])c(N)c5c4O)c(C)c3)cc2C)nn1)c1ccccc1)OC)N(C)C(=O)[C@@H](NC(=O)[C@H](C(C)C)N(C)C)C(C)C.[Na+].[Na+].[Na+]` [Example compound 2], which IC50 [1, 8] is on record?
Its IC50 is 0.0075 µM.

And the IC50 ([1]; βGU-free)?
Its IC50 is 0.176 µM.

What about the IC50 [2, 8] of the same compound?
Its IC50 is 0.0027 µM.

And the IC50 ([2]; βGU-free)?
The IC50 was 0.024 µM.

What about the IC50 [3, 8] of the same compound?
Its IC50 is 0.0067 µM.

And the IC50 ([3]; βGU-free)?
Its IC50 is 0.212 µM.

What about the IC50 [4, 8] of the same compound?
The IC50 was 0.0043 µM.

And the IC50 ([4]; βGU-free)?
The IC50 was 0.12 µM.

What about the IC50 [5, 8] of the same compound?
The IC50 was 0.0067 µM.

And the IC50 ([5]; βGU-free)?
Its IC50 is 0.081 µM.

What about the IC50 [6, 8] of the same compound?
Its IC50 is 0.0038 µM.

And the IC50 ([6]; βGU-free)?
The IC50 was 0.11 µM.

And the “Final body weight change (%)” value ([7]; 15 mg/kg i.v. qw×2)?
Its value is 11.4%.

And the “Maximum body weight change (%)” value ([7]; 15 mg/kg i.v. qw×2)?
The value was 11.4, d26%.

What about the “Relative volume RTV (x±S.D.)” value ([7]; 15 mg/kg i.v. qw×2) of the same compound?
The value was 0.48±0.07.

And the “T/C (%)” value ([7]; 15 mg/kg i.v. qw×2)?
The value was 5.9%.

And the “Tumor inhibition rate (%)” value ([7]; 15 mg/kg i.v. qw×2)?
The value was 96.4%.

And the “Tumor weight (g, x±S.D.)” value ([7]; 15 mg/kg i.v. qw×2)?
Its value is 0.048 ± 0.009 g.

And the “Body weight (g, x±S.D.) End” value ([7]; 15 mg/kg i.v. qw×2, End)?
Its value is 26.9 ± 1.3 g.

What about the “Body weight (g, x±S.D.) Start” value ([7]; 15 mg/kg i.v. qw×2, Start) of the same compound?
Its value is 24.2 ± 1.5 g.
